Measurements from patent US20220389013A1, “PYRIDOPYRIMIDINONE COMPOUNDS AND APPLICATIONS THEREOF” (BeBetter Med Inc., priority 2020, published 2022).
Read-outs that look alike come from different tables or passages of the source.

Tests used:
[1] = Caco-2 cell transmembrane transport experiment; conditions: human; for Papp B→A at 90 min, 10 μM: basolateral to apical
Text: (§3) In this experiment, a monolayer of Caco-2 cells was used to assess drug penetration. […] The apparent permeability coefficient from apical to basolateral (Papp A-B) and the basolateral to apical permeability coefficient (Papp B-A) of compounds represent the ability of the compound to be transported in both directions, respectively.
(§4) Apparent permeability coefficient (Papp)=(the volume of the receiver chamber/the filter surface area×culture time))×(the drug concentration of receiver chamber at the end of culture/(the drug concentration of donor chamber at the initial culture×dilution factor)
(§5) In this experiment, Millipore cell culture plates (PSHT 010 R5): membrane area=0.7 cm^2, recipient side volume=0.8 mL (A-to-B) or 0.4 mL (B-to-A), incubation time=90 minutes.

[2] = Pharmacokinetic (PK) experiment in rats by gavage; format: in vivo; conditions: rat, plasma, po, male SD rats, 20 mg/kg; for AUC(0-t): read-out: AUC0-24
H358 xenograft tumor [3] = experiment: H358 xenograft model, dose-response of compound 73-1; format: in vivo, BALB/c nude mice; conditions: po, qd, 28 days
Procedure: (§1) In this experiment, the anticancer activities of compounds 73-1 and 90-1 in the subcutaneous tumor model of H358 human non-small cell lung cancer xenograft mice, and the dose-response relationship of compound 73-1 in inhibiting the growth of H358 xenograft tumors were investigated. […] When H358 cells were cultured to a sufficient number, cells were collected. […] Vernier calipers were used to measure the size of the tumor. The formula for calculating the tumor volume is: tumor volume=(length×width^2)/2, and the formula for calculating the relative tumor proliferation rate T/C value is: T/C (%)=100×ΔT/ΔC (ΔT>0) or T/T (%)=100×ΔT/T0 (ΔT<0). ΔT is the difference of tumor volume in the treatment group, ΔC is the difference of tumor volume in the vehicle control group, and T0 is the tumor volume in the treatment group before administration.
In the dose-response study of compound 73-1 inhibiting the growth of H358 xenograft tumors, when the H358 tumor volume reached an average of about 183 mm^3, the animals were respectively divided into different treatment groups, including vehicle (30% sulfobutyl-β-Cyclodextrin) control group, compound 73-1 orally administered group with doses of 12.5 mg/kg, 25 mg/kg, 50 mg/kg, and 100 mg/kg (n=8/group), administered once every day. […] All the groups were administered continuously for 28 days with 10 mL/kg oral administration.

[4] = system: MIA Paca2 T2 xenograft tumor; experiment: MIA Paca2 T2 human pancreatic cancer xenograft mouse subcutaneous model; conditions: for effect on tumor (in words): 28 days oral, 73-1 50 mg/kg bid, AMG510 100 mg/kg qd
Procedure: MIAPaca2 cells were cultured to sufficient numbers in DMEM containing 10% fetal bovine serum and 2.5% horse serum, then harvested. 5 million cells suspended in 0.1 mL of serum-free medium and Matrigel (1:1, v/v) were injected subcutaneously into the right flank area of each mouse, carefully avoiding blood vessels and serially passaged 2 times in animals. The size of the tumor was measured using a vernier caliper, and the method for calculating the tumor volume and T/C value was the same as above. […] The compounds were respectively dissolved in 30% sulfobutyl-β-cyclodextrin (SBE-β-CD) and 1.5 equivalent of 1 M HCl (pH 4-5) at the corresponding concentrations. 10 mL/kg was orally administered continuously by gavage for 28 days.

H358 xenograft tumor [5] = experiment: H358 human non-small cell lung cancer subcutaneous mouse xenograft model, anticancer activity; format: in vivo, BALB/c nude mice; conditions: 100 mg/kg, po, qd, 26 days
Procedure: as §1
The dosage of the all groups, except the vehicle control group, was 100 mg/kg, 10 mL/kg orally administered by gavage, once a day. […] All the groups were administered continuously for 26 days.

KRAS-G12C/SOS1 = molecular target: T1, KRAS-G12C/SOS1 (Homo sapiens, UniProt P01116, G12C); experiment: HTRF KRAS-G12C/SOS1 binding assay; conditions: 2 hours room temperature
T1 construct: purchased Cisbio #63ADK000CB16PEG
T1 sequence (P01116 1-188 isoform P01116-2 G12C): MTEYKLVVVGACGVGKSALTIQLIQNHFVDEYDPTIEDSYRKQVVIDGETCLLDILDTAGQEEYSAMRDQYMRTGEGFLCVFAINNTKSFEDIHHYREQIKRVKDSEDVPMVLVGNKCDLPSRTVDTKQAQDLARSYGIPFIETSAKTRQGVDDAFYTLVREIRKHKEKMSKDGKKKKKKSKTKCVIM
Procedure: 2) Diluted the compound to be tested with diluent into 10× stock solution, starting from a concentration of 10000 nM, diluting in 4-fold gradient and a total of 6 concentration gradients.
After incubated at room temperature for 15 minutes, added pre-mixed 5 uL of anti-Tag1-Tb^3+ and 5 uL of anti-Tag2-XL665. Sealed the plate and incubated at room temperature for 2 hours.
Data were processed by using Graphpad prism software.

H23 (KRAS G12C) = experiment: Tumor cell proliferation inhibition assay (CellTiter-Glo), H23; format: cell-based, Human; conditions: Homo sapiens, 72 h, 10% fetal bovine serum
How it was run: (§2)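 Growth was read as ATP by CellTiter-Glo luminescence, with inhibition normalised to DMSO (max) and medium-only (min) wells. IC50 came from sigmoidal dose-response fits.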

MIA-Paca2 (KRAS G12C) = experiment: Tumor cell proliferation inhibition assay (CellTiter-Glo), MIA-Paca2; format: cell-based, Human; conditions: 72 hours, 10% fetal bovine serum
How it was run: as §2

H358 (KRAS G12C) = experiment: Tumor cell proliferation inhibition assay (CellTiter-Glo), H358; format: cell-based, Human; conditions: Homo sapiens, NCI-H358, 72 h, 10% fetal bovine serum
How it was run: as §2

Caco-2 cell = Caco-2 cell transmembrane transport experiment; conditions: 10 μM, pH 7.4, 37° C., 90 min
Text: as §3, §4, §5

mouse tumors = conditions: mouse experiments, alone or combined; cited from earlier work
[6] = system: non-small cell lung cancer (NSCLC); conditions: cited from earlier work
[7] = Caco-2, pH 7.4, Papp A-B Sample_01, 10 μM, pH 7.4, 37° C., 90 min, apical to basolateral
[8] = Caco-2, pH 7.4, Papp A-B Sample_02, 10 μM, pH 7.4, 37° C., 90 min, apical to basolateral
[9] = Caco-2, pH 7.4, Papp A-B mean value, 10 μM, pH 7.4, 37° C., 90 min, apical to basolateral
[10] = Caco-2, pH 7.4, Papp B-A Sample_01, 10 μM, pH 7.4, 37° C., 90 min
[11] = Caco-2, pH 7.4, Papp B-A Sample_02, 10 μM, pH 7.4, 37° C., 90 min
[12] = Caco-2, pH 7.4, Papp B-A mean value, 10 μM, pH 7.4, 37° C., 90 min
[13] = 13 evaluable patients, highest dose of 960 mg

## C=CC(=O)N1CCN(c2nc(=O)n(-c3c(C)ccnc3C(C)C)c3nc(-c4c(F)ccc5ccoc45)c(Cl)cc23)[C@@H](C)C1 (single isomer, unassigned) [Compound 73-1]
[1]; Caco-2, pH 7.4
  efflux ratio at 90 min, 10 μM: 1.12
[1]; [7]
  Papp A→B at 90 min, 10 μM: 16 ×10⁻⁶ cm/s
[1]; [8]
  Papp A→B at 90 min, 10 μM: 20.8 ×10⁻⁶ cm/s
[1]; [9]
  Papp A→B at 90 min, 10 μM: 18.4 ×10⁻⁶ cm/s
[1]; [10]
  Papp B→A at 90 min, 10 μM: 17.2 ×10⁻⁶ cm/s
[1]; [11]
  Papp B→A at 90 min, 10 μM: 24 ×10⁻⁶ cm/s
[1]; [12]
  Papp B→A at 90 min, 10 μM: 20.6 ×10⁻⁶ cm/s
[1]; Caco-2, pH 7.4, apparent permeability coefficient Papp A-B, Caco-2
  Papp A→B at 90 min, 10 μM: > 10 ×10⁻⁶ cm/s
[2]
  AUC(0-inf): 4320 ng·h/mL
  Cmax: 1750 ng/mL
  Tmax: 0.67 h
  half-life: 3.23 h
  AUC(0-t): 4300 ng·h/mL
H358 xenograft tumor [3]; 12.5 mg/kg
  Antitumor activity T/C value (%): −68.5%
  Changes of body weight (%): −0.2%
H358 xenograft tumor [3]; 25 mg/kg
  Antitumor activity T/C value (%): −74.0%
  Changes of body weight (%): −0.1%
H358 xenograft tumor [3]; 50 mg/kg
  Antitumor activity T/C value (%): −93.5%
  Changes of body weight (%): 2.2%
H358 xenograft tumor [3]; 100 mg/kg
  Antitumor activity T/C value (%): −96.6%
  Changes of body weight (%): 1.9%
H358 xenograft tumor [3]; 12.5, 25, 50 and 100 mg/kg, versus vehicle control
  clinical symptoms and body weight (in words): no significant clinical symptoms and no significant changes in body weight
H358 xenograft tumor [3]; 12.5-100 mg/kg
  effect on tumor growth (in words): inhibited the growth of H358 tumor in a dose-dependent manner and could cause partial disappearance of tumor
  tolerability (in words): well tolerated
[4]; 50 mg/kg, po, bid, 28 days
  Antitumor activity T/C value (%): −100%
  Changes of body weight (%): 10.2%
[4]
  effect on tumor (in words): cause the tumor to disappear completely
H358 xenograft tumor [5]
  Changes of body weight (%): 10.1%
  effect on tumor (in words): cause the tumor to disappear completely
  tumor suppressor T/C value (%): −100.0%
KRAS-G12C/SOS1
  IC50: < 50 nM
H23 (KRAS G12C)
  IC50: < 10 nM
MIA-Paca2 (KRAS G12C)
  IC50: < 10 nM
H358 (KRAS G12C)
  IC50: < 10 nM

## C=CC(=O)N1CCN(c2nc(=O)n(-c3c(C)ccnc3C(C)C)c3nc(-c4c(O)cccc4F)c(F)cc23)[C@@H](C)C1 (atropisomer, axis not shown) [AMG510, reference compound]
Caco-2 cell
  efflux rate Papp(B-A)/Papp(A-B): 6.22
[1]; [7]
  Papp A→B at 90 min, 10 μM: 5.83 ×10⁻⁶ cm/s
[1]; [8]
  Papp A→B at 90 min, 10 μM: 4.94 ×10⁻⁶ cm/s
[1]; [9]
  Papp A→B at 90 min, 10 μM: 5.39 ×10⁻⁶ cm/s
[1]; [10]
  Papp B→A at 90 min, 10 μM: 27.9 ×10⁻⁶ cm/s
[1]; [11]
  Papp B→A at 90 min, 10 μM: 39.1 ×10⁻⁶ cm/s
[1]; [12]
  Papp B→A at 90 min, 10 μM: 33.5 ×10⁻⁶ cm/s
[2]
  AUC(0-inf): 3430 ng·h/mL
  Cmax: 3250 ng/mL
  Tmax: 0.33 h
  half-life: 6.76 h
  AUC(0-t): 3370 ng·h/mL
[4]; 100 mg/kg, po, qd, 28 days
  Changes of body weight (%): 13.8%
[4]
  effect on tumor (in words): shrink the tumor
H358 xenograft tumor [5]
  Changes of body weight (%): 16.4%
  effect on tumor (in words): shrink the tumor
  tumor suppressor T/C value (%): −93.8%
Mouse tumors
  mice whose tumor completely disappeared: 10%
[6]; [13]
  DCR: 100%
  ORR: 54%
  partial response (PR): 54%
[6]; 23 evaluable NSCLC patients
  disease control rate (DCR): 96%
  objective response rate (ORR): 48%
  partial response (PR): 48%
  progressive disease (PD): 4%
[6]; phase I patients
  dose-limiting toxicity and adverse reactions above grade IV: No dose-limiting toxicity (DLT) and drug-related adverse reactions above grade IV were found
  tolerability (in words): well tolerated

## pembrolizumab: PD-1 antibody
Mouse tumors
  mice whose tumor completely disappeared: 10%
